Test results from publication PMC12888920, “MMP-9 regulates disulphide isomerase activity of TGM2 to enhance fusion glycoprotein-mediated syncytium formation of respiratory syncytial virus” (Protein & Cell, 2025).
One block for each compound: values may come before it.

How the values were obtained:
HEp-2 cells = assay: Cell viability assay (CellTiter-Glo) in HEp-2 cells; format: cell-based
Experimental: (§1) Figure 7. MMP-9-mediated TGM2 cleavage potentiates RSV–host interaction. (A) Cytotoxicity profiling. Dose-response curves of TGM2 inhibitors (ZED-1227, Cystamine, Bacitracin, E64FC26, ML359) in HEp-2 cells (72 h treatment). Viability was assessed by CellTiter-Glo assay. Data normalized to untreated controls. mean ± SD, n = 3. (B) Antiviral efficacy. Viral inhibition (FFA) in RSV A2-infected HEp-2 cells treated with TGM2 inhibitors at threefold dilution gradients: ZED-1227 (60–10 µmol/L), Cystamine (200–22.2 µmol/L), Bacitracin (500–50 µmol/L), E64FC26 (0.2–0.05 µmol/L), and ML359 (10–1.1 µmol/L). DMSO as vehicle control. mean ± SD, n = 3. (C) TGM2–F protein interaction. Co-IP analysis in HEK293T cells co-expressing TGM2 and RSV F (48 h). Immunoblots were probed with anti-TGM2, anti-F, or IgG control. Blots represent three independent experiments. (D) Binding kinetics. BLI quantification of TGM2–DS-Cav1 (RSV F prefusion conformation) interaction. The results represent three biological replicates. (E) Ternary complex formation. Co-IP of MMP-9-TGM2-F complex in HEK293T cells (48 h). GAPDH as loading control. Below the asterisk represents the objective band. Blots represent three independent experiments. (F) Impairing MMP-9/TGM2/RSV-F complex inhibits RSV infection. […] (G) Proteolytic enhancement. MMP-9-cleaved TGM2 (TGM2-44) enhances protein disulfide isomerase (PDI) activity was measured using reduced DS-Cav1. mean ± SD, n = 3. (H) Truncation functional analysis. Viral titers (FFA) in HEp-2 cells expressing MMP-9, TGM2, or cleavage fragments (TGM2-44/41) post RSV infection (MOI = 1, 72 hpi). mean ± SD, n = 3. (I) Syncytium rescue. Syncytia area quantification in TGM2 truncation-expressing cells (ImageJ software). mean ± SD, n = 3. (J) Subcellular redistribution. Confocal microscopy of HEp-2 cells co-expressing TGM2 truncations (HA/FLAG-tagged) and RSV F (72 hpi). Scale bar: 10 µm. Images represent three biological replicates. (K) F protein expression. Fluorescence intensity quantification of RSV F in (J) (ImageJ software). mean ± SD, n = 3. (L) Fusion competence assay. Syncytium formation in HEK293T cells co-expressing TGM2 truncations and RSV F/F-C37S/C69S mutants (48 h). Scale bar: 10 µm. Images represent three biological replicates. (M) Mutant validation. RSV F expression levels in (L) were quantified by ImageJ software. mean ± SD, n = 3. The results are representatively shown with three random experiments. The error bars indicate the mean ± SD of three technical replicates (n = 3). […]
(§2) (B-C) Cytotoxicity profiles in HEp-2 (B) and HBEC (C) cells. […] Viability was assessed using the CellTiter-Glo assay (G7570, Promega). […]
(§3) 95 Cell viability was evaluated using a CellTiter -Glo® Luminescent Cell Viability Assay 96 kit (G7571, Promega) according to the manufacturer’s instructions. […]

RSV A2 [1] = assay: Viral inhibition (FFA) in RSV A2-infected HEp-2 cells treated with TGM2 inhibitors; format: cell-based, Respiratory syncytial virus; conditions: HEp-2, RSV A2; ZED-1227 60–10, Cystamine 200–22.2, Bacitracin 500–50, E64FC26 0.2–0.05, ML359 10–1.1 µmol/L
Experimental: Figure 7. MMP-9-mediated TGM2 cleavage potentiates RSV–host interaction. (A) Cytotoxicity profiling. Dose-response curves of TGM2 inhibitors (ZED-1227, Cystamine, Bacitracin, E64FC26, ML359) in HEp-2 cells (72 h treatment). Viability was assessed by CellTiter-Glo assay. Data normalized to untreated controls. mean ± SD, n = 3. (B) Antiviral efficacy. Viral inhibition (FFA) in RSV A2-infected HEp-2 cells treated with TGM2 inhibitors at threefold dilution gradients: ZED-1227 (60–10 µmol/L), Cystamine (200–22.2 µmol/L), Bacitracin (500–50 µmol/L), E64FC26 (0.2–0.05 µmol/L), and ML359 (10–1.1 µmol/L). DMSO as vehicle control. mean ± SD, n = 3. (C) TGM2–F protein interaction. Co-IP analysis in HEK293T cells co-expressing TGM2 and RSV F (48 h). Immunoblots were probed with anti-TGM2, anti-F, or IgG control. Blots represent three independent experiments. (D) Binding kinetics. BLI quantification of TGM2–DS-Cav1 (RSV F prefusion conformation) interaction. The results represent three biological replicates. (E) Ternary complex formation. Co-IP of MMP-9-TGM2-F complex in HEK293T cells (48 h). GAPDH as loading control. Below the asterisk represents the objective band. Blots represent three independent experiments. (F) Impairing MMP-9/TGM2/RSV-F complex inhibits RSV infection. […] (G) Proteolytic enhancement. MMP-9-cleaved TGM2 (TGM2-44) enhances protein disulfide isomerase (PDI) activity was measured using reduced DS-Cav1. mean ± SD, n = 3. (H) Truncation functional analysis. Viral titers (FFA) in HEp-2 cells expressing MMP-9, TGM2, or cleavage fragments (TGM2-44/41) post RSV infection (MOI = 1, 72 hpi). mean ± SD, n = 3. (I) Syncytium rescue. Syncytia area quantification in TGM2 truncation-expressing cells (ImageJ software). mean ± SD, n = 3. (J) Subcellular redistribution. Confocal microscopy of HEp-2 cells co-expressing TGM2 truncations (HA/FLAG-tagged) and RSV F (72 hpi). Scale bar: 10 µm. Images represent three biological replicates. (K) F protein expression. Fluorescence intensity quantification of RSV F in (J) (ImageJ software). mean ± SD, n = 3. (L) Fusion competence assay. Syncytium formation in HEK293T cells co-expressing TGM2 truncations and RSV F/F-C37S/C69S mutants (48 h). Scale bar: 10 µm. Images represent three biological replicates. (M) Mutant validation. RSV F expression levels in (L) were quantified by ImageJ software. mean ± SD, n = 3. The results are representatively shown with three random experiments. The error bars indicate the mean ± SD of three technical replicates (n = 3). Statistical analysis: one-way ANOVA with Dunnett’s post hoc test (B, F, G, H, I, K, M); unpaired two-tailed Student’s t-test (F, H, I, K, M). *P < 0.05, **P < 0.01, ***P < 0.001; ns, not significant.

RSV A2 [2] = assay: Antiviral activity (FFA) against RSV A2 in HEp-2 cells; format: cell-based; conditions: human respiratory syncytial virus; HEp-2, RSV A2, MOI = 0.1, 72 hpi; read-out: EC50
From the text: (§4) Figure 1. Antiviral activity of metalloproteinase inhibitors against RSV in vitro. (A) Experimental workflow for RSV A2 infection and compound treatment. (B) High-throughput screening of TargetMol L1100 library (246 host protease inhibitors targeting 10 pathways: MMPs, caspases, proteasomes, apoptosis regulators, cysteine proteases, gamma-secretase, autophagy modulators, serine proteases, DPP-4, and beta-secretase) using concentration gradients (1, 5, 10 µmol/L). HEp-2 cells were pretreated with compounds for 1 hour prior to RSV A2 infection (MOI = 0.1). Plaque formation was quantified at 72 hours post-infection (hpi) and normalized to DMSO controls. […] (G) Target overlap analysis of four MMP-9-targeting inhibitors. (H) Viral titers in supernatants of HEp-2 cells transfected with MMP-specific siRNAs (24 h) followed by RSV A2 infection (MOI = 1, 72 h). mean ± SD, n = 3. The results are representatively shown with three random experiments. The error bars indicate the mean ± SD of three technical replicates (n = 3). Statistical significance was determined by one-way ANOVA with Dunnett’s post hoc test: *P < 0.05, ***P < 0.001; ns, not significant. […]
(§5) 110 overtly cytotoxic) underwent dose -response validation (0.00004 –10 μM) to generate
(§6) 111 EC50 curves (GraphPad Prism 8.0) .
(§7) 112 Evaluation of in vitro antiviral activity
(§8) 113 Compound inhibitor treatments: HEp-2 cells (1.3×10⁴/well) or HBEC (1.8×10⁴/well)
(§9) 114 were pretreated with test compounds for 1 h before RSV A2/B18537 infection
(§10) 115 (MOI=0.1 or 0.3). Viral inhibition was quantified at 72 hpi via FFA. Fixed cells (4%
(§11) 116 PFA) were permeabilized (0.3% Triton X-100), stained with anti-RSV-FITC
(§12) 118 Fluorescent foci were normalized to nuclear counts (ImageJ software) for EC 50
(§13) 119 determination via four-parameter logistic regression (GraphPad Prism 8.0). Data
(§14) 120 represent triplicate experiments. […]

RSV B18537 [3] = assay: Antiviral activity (FFA) against RSV B18537 in HEp-2 cells; format: cell-based; conditions: human respiratory syncytial virus; HEp-2, RSV B18537, MOI = 0.1, 72 hpi; read-out: EC50
From the text: as §4
109 111813, MCE) and 0.1% DMSO vehicle. Primary hits (>50% CPE reduction + not
as §5, §6, §7, §8, §9, §10, §11, §12, §13, §14

RSV A2 [4] = assay: Antiviral activity (FFA) against RSV A2 in primary human bronchial epithelial cells (HBEC); format: cell-based; conditions: human respiratory syncytial virus, Epithelial cell; HBEC, RSV A2, MOI = 0.3, 72 hpi; read-out: EC50
From the text: as §4, §7, §8, §9, §10, §11, §12, §13, §14

RSV B18537 [5] = assay: Antiviral activity (FFA) against RSV B18537 in HBEC; format: cell-based; conditions: human respiratory syncytial virus; HBEC, RSV B18537, MOI = 0.3, 72 hpi; read-out: EC50
From the text: as §4, §7, §8, §9, §10, §11, §12, §13, §14

[6] = Cell viability assay (CellTiter-Glo) in HEp-2 cells; format: cell-based; conditions: human
Experimental: as §1, §2, §3

RSV F protein (DS-Cav1) = assay: Biolayer interferometry, TGM2 binding to RSV F protein (DS-Cav1); parameters: species or system Respiratory syncytial virus; conditions: BLI, biotinylated DS-Cav1 on SA biosensors
Experimental: Figure 7. MMP-9-mediated TGM2 cleavage potentiates RSV–host interaction. (A) Cytotoxicity profiling. Dose-response curves of TGM2 inhibitors (ZED-1227, Cystamine, Bacitracin, E64FC26, ML359) in HEp-2 cells (72 h treatment). Viability was assessed by CellTiter-Glo assay. Data normalized to untreated controls. mean ± SD, n = 3. (B) Antiviral efficacy. Viral inhibition (FFA) in RSV A2-infected HEp-2 cells treated with TGM2 inhibitors at threefold dilution gradients: ZED-1227 (60–10 µmol/L), Cystamine (200–22.2 µmol/L), Bacitracin (500–50 µmol/L), E64FC26 (0.2–0.05 µmol/L), and ML359 (10–1.1 µmol/L). DMSO as vehicle control. mean ± SD, n = 3. (C) TGM2–F protein interaction. […] BLI quantification of TGM2–DS-Cav1 (RSV F prefusion conformation) interaction. […] MMP-9-cleaved TGM2 (TGM2-44) enhances protein disulfide isomerase (PDI) activity was measured using reduced DS-Cav1. mean ± SD, n = 3. […] Syncytia area quantification in TGM2 truncation-expressing cells (ImageJ software). mean ± SD, n = 3. […] Fluorescence intensity quantification of RSV F in (J) (ImageJ software). mean ± SD, n = 3. […] RSV F expression levels in (L) were quantified by ImageJ software. mean ± SD, n = 3. […]
271 TGM2) were quantified using a Sartorius Octet R4 system. […]
275 equilibration. MMP-9 (MCE) binding was assessed across two concentration ranges: […]
281 (Sartorius) at 20 µg/mL. TGM2 binding was evaluated across 0 –100 µM (7 […]

Compound: CCOC(=O)C1(CCOc2ccccc2)CCN(Cc2ccc(O)c(Cl)c2)CC1 [ML359]
CC50 (HEp-2 cells): 26100 nM
inhibition of RSV replication (antiviral efficacy) (RSV A2 [1]): strong antiviral efficacy

EC50 (RSV A2 [2]): 2.6 nM
EC50 (RSV B18537 [3]): 32.9 nM
EC50 (RSV A2 [4]): 45.5 nM
EC50 (RSV B18537 [5]): 47.1 nM
Compound: Cc1cnc(N2CC3(CCOCC3)C2)c(C(=O)Nc2ccc(C(=O)N3CCc4cc(C(=O)Nc5c(C)cccc5F)sc4-c4ccccc43)cc2)c1 [PC786]

Compound: CCC(CC)CNC(=O)Cn1cccc(NC(=O)[C@H](CC/C=C/C(=O)OC)NC(=O)c2cncn2C)c1=O [ZED-1227]
CC50 at 72 h [6]: 78700 nM
inhibition of RSV replication (antiviral efficacy) (RSV A2 [1]): did not inhibit RSV replication

Compound: Bacitracin
inhibition of RSV replication (antiviral efficacy) (RSV A2 [1]): strong antiviral efficacy

Compound: TGM2: recombinant transglutaminase 2 protein used in BLI
Kd (RSV F protein (DS-Cav1)): 6310 nM
